Laboratory results taken from patent US5965560A, “Substituted piperazines and piperidines as central nervous system agents” (priority 1997, dated 1999).
Structures can show the parent of a compound that is named as a salt.

Legend:
[1] = target: human D3 receptor (DA D3) (Homo sapiens, UniProt P35462); assay: inhibition of [^3 H]spiperone binding to the human D3 receptor; settings: human D3, [^3 H]spiperone
[2] = target: human D2 receptor (DA D2) (Homo sapiens, UniProt P14416); assay: inhibition of [^3 H]spiperone binding to the human D2 receptor; settings: human D2, [^3 H]spiperone
[3] = target: T1, human D4 dopamine receptor (DA D4) (Homo sapiens, UniProt P21917); assay: inhibition of radioligand binding to the human D4 dopamine receptor
T1 sequence (P21917 1-419): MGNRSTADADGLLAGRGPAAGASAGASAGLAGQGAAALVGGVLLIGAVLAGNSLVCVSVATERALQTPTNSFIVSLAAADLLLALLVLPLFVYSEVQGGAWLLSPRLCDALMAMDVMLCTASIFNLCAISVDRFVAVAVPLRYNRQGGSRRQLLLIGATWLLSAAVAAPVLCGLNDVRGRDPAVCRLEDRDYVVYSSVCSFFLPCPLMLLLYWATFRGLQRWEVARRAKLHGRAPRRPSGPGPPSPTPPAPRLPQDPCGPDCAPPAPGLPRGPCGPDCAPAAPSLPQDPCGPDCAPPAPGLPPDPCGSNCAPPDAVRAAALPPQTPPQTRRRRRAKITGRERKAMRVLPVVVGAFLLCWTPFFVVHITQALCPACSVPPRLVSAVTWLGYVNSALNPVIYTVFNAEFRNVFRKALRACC
Method: Compounds were tested for their ability to bind to dopamine receptors as measured by their inhibition of [^3 H]spiperone binding to the human D2, D3 receptors in a receptor assay described by MacKenzie R. G., VanLeeuwen D., Pugsley T. A., et al., "Characterization of the human dopamine D3 receptor expressed in transfected cell lines." Eur. J. Pharmacol.-Mol. Pharmacol., 1994;266:79-85; for the human D4 dopamine receptor in a receptor assay by Pugsley T. A., Davis M. D., Akunne H. C., et al., "CI-1007, a dopamine partial agonist and potential antipsychotic agent. I. Neurochemical Effects." J. Pharmacol. Exp. Ther., 1995;274:898-911; and for ability to block the action of an agonist in a [^3 H]thymidine incorporation assay described by Lajiness N. E., Chio C. L., Huff R. M., "D2 dopamine receptor stimulation of mitogenesis in transfected Chinese hamster ovary cells: relationship to dopamine stimulation of tyrosine phosphorylations." J. Pharmacol. Exp. Ther., 1993;267:1573-81. This test determines the agonist/antagonist character of a compound by measuring [^3 H]thymidine update in Chinese hamster ovary (CHO) pro-5 cells expressing the DA D4 receptor. Agonists, such as quinpirole, promote cell growth and subsequent [^3 H]thymidine incorporation, while antagonists block the action of agonists. […] The above test methods are incorporated herein by reference.

[4] = clozapine, background section; cited from earlier work
[5] = test system: DA D4 receptor; settings: D4 versus D2; Van Tol et al., Nature 1991; cited from earlier work

human D3 receptor (DA D3), sequence (P35462 whole entry): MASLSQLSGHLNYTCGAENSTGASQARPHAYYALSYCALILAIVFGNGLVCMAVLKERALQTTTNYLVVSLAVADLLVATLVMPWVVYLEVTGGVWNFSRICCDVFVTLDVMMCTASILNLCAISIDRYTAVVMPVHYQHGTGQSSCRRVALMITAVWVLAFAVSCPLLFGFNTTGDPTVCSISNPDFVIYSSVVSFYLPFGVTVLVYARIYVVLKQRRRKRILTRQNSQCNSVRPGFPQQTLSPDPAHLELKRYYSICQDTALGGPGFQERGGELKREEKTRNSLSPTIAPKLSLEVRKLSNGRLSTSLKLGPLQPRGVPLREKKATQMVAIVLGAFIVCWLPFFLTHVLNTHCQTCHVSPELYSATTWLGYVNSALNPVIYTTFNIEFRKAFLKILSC
human D2 receptor (DA D2), sequence (P14416 whole entry): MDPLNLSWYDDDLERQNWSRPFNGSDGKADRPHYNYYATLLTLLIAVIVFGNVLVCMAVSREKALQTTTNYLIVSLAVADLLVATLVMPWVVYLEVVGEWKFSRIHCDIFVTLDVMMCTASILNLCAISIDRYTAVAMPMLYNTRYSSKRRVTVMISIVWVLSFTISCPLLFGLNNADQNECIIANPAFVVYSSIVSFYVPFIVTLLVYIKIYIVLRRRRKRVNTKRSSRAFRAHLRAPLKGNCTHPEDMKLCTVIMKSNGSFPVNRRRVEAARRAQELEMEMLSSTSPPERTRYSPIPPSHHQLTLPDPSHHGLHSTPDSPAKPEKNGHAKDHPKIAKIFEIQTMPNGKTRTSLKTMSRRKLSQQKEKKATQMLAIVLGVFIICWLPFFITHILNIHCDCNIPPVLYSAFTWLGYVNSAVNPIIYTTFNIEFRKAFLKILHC

| Ki [1] | Ki [2] | Ki [3] | SMILES | extrapyramidal side effects and tardive dyskinesia [4] | affinity for the DA D4 receptor relative to D2 [5] |
| --- | --- | --- | --- | --- | --- |
| 1210 nM | 2340 nM | 5 nM | COc1ccc(CN2CCN(c3cccc(C)c3Cl)CC2)cc1OC [Example 29, 1-(2-Chloro-3-methylphenyl)-4-(3,4-dimethoxybenzyl)-piperazine, monohydrochloride] |  |  |
| 6820 nM | 1410 nM | 7.5 nM | COc1cc(CN2CCN(c3ccc(C)cc3)CC2)cc(OC)c1OC [Example 8, 1-p-Tolyl-4-(3,4,5-trimethoxybenzyl)piperazine, monohydrochloride] |  |  |
| 2770 nM | 1460 nM | 8.6 nM | COc1cc(CN2CCN(c3cccc(C)c3)CC2)cc(OC)c1OC [Example 7, 1-m-Tolyl-4-(3,4,5-trimethoxybenzyl)piperazine, monohydrochloride] |  |  |
| 2120 nM | 1050 nM | 6.1 nM | COc1cc(CN2CCN(c3cccc(Cl)c3C)CC2)cc(OC)c1OC [Example 19, 1-(3-Chloro-2-methylphenyl)-4-(3,4,5-trimethoxybenzyl)-piperazine, monohydrochloride] |  |  |
| 730 nM | 2080 nM | 11.3 nM | COc1ccc(OC)c(CN2CCN(c3cccc(C)c3Cl)CC2)c1 [Example 28, 1-(2-Chloro-3-methylphenyl)-4-(2,5-dimethoxybenzyl)-piperazine, monohydrochloride] |  |  |
| 2650 nM | 2900 nM | 12.7 nM | COc1cccc(CN2CCN(c3cccc(C)c3Cl)CC2)c1OC [Example 26, 1-(2-Chloro-3-methylphenyl)-4-(2,3-dimethoxybenzyl)-piperazine, monohydrochloride] |  |  |
| 3510 nM | 1560 nM | 6.5 nM | COc1cc(CN2CCN(c3cc(Cl)ccc3C)CC2)cc(OC)c1OC [Example 21, 1-(5-Chloro-2-methylphenyl)-4-(3,4,5-trimethoxybenzyl)-piperazine, monohydrochloride] |  |  |
| 409 nM | 762 nM | 4.4 nM | COc1ccc(CN2CCN(c3cccc(C)c3Cl)CC2)c(OC)c1 [Example 27, 1-(2-Chloro-3-methylphenyl)-4-(2,4-dimethoxybenzyl)-piperazine, monohydrochloride] |  |  |
|  |  |  | CN1CCN(C2=Nc3cc(Cl)ccc3Nc3ccccc32)CC1 [clozapine] | lack of extrapyramidal side effects and tardive dyskinesia | tenfold higher affinity |
| 2030 nM | 3290 nM | 4.5 nM | COc1cc(CN2CCN(c3ccc(C)c(Cl)c3)CC2)cc(OC)c1OC [Example 20, 1-(3-Chloro-4-methylphenyl)-4-(3,4,5-trimethoxybenzyl)-piperazine, monohydrochloride] |  |  |
